The test addresses glucocorticoid receptor (GAL4 DBD-GR) (Homo sapiens (Human), UniProt P04150). The test is described as follows: GR cell-based assays (GRE agonist / GRE antagonist), CHO-Gal4/GR luciferase reporter. In short, it runs like this:
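CHO cells stably carrying GAL4 DBD-GR ligand-binding-domain fusion and a GAL4-UAS firefly luciferase reporter were treated in Opti-MEM with 8 half-log concentrations from 10 μM to 0.003 μM (0.5% DMSO, quadruplicates). Antagonist mode measured repression of beclomethasone-induced signal. Luminescence after lysis gave EC50 or IC50.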
(In general: A reporter such as luciferase makes a cellular process visible.)

Where [1] appears, read: CHO-Gal4/GR reporter cells, agonist mode (EC50) or antagonist mode against beclometasone (IC50), 6 hour incubation.

Like-named read-outs stand apart in the source and are kept apart here.

Chain of glucocorticoid receptor (GAL4 DBD-GR) (P04150 524-758): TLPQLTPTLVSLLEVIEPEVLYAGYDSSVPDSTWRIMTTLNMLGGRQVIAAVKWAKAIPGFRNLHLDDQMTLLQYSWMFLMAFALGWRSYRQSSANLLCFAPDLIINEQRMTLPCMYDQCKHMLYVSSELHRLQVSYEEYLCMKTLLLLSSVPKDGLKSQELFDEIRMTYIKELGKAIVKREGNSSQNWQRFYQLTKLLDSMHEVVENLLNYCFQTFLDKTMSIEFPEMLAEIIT

With `C[C@@H]1C(=O)N(c2ccc3c(cnn3-c3ccc(F)cc3)c2)[C@H](c2ccc(Cl)s2)[C@H]1NC(=O)c1ccn(C)n1` (racemic) [Example 110, N-[rac-(2S,3S,4S)-2-(5-Chloro-thiophen-2-yl)-1-[1-(4-fluorophenyl)-1H-indazol-5-yl]-4-methyl-5-oxo-pyrrolidin-3-yl]-1-methyl-1H-pyrazole-3-carboxylic acid amide], the IC50 – broadly, the concentration needed to halve the response being measured – (read-out: IC50 or EC50) is less than 100 nM.

As to `Cn1cc(C(=O)N[C@H]2[C@H](c3ccccc3)N(c3ccc4c(cnn4-c4ccc(F)cc4)c3)C(=O)C2(C)C)cn1` [Example 41b, N-((2S,3R)-1-(1-(4-fluorophenyl)-1H-indazol-5-yl)-4,4-dimethyl-5-oxo-2-phenylpyrrolidin-3-yl)-1-methyl-1H-pyrazole-4-carboxamide], under “read-out: IC50 or EC50”, the IC50 fell in the range of 1000 to 15000 nM.

`Cc1ncsc1C(=O)N[C@H]1[C@H](C)C(=O)N(c2ccc3c(cnn3-c3ccc(F)cc3)c2)[C@@H]1c1ccccc1` (racemic) [Example 60, N-[rac(2R,3S,4S)-1-[1-(4-Fluorophenyl)-1H-indazol-5-yl]-4-methyl-5-oxo-2-phenyl-pyrrolidin-3-yl]-4-methyl-thiazole-5-carboxylic acid amide]: where the note is “read-out: IC50 or EC50”, the IC50 is 100 to 1000 nM.

In the case of `Cn1ccc(C(=O)N[C@@H]2[C@@H](c3ccccc3)N(c3ccc4c(cnn4-c4ccc(F)cc4)c3)C(=O)C2(C)C)n1` [Example 37, N-((2R,3S)-1-(1-(4-fluorophenyl)-1H-indazol-5-yl)-4,4-dimethyl-5-oxo-2-phenylpyrrolidin-3-yl)-1-methyl-1H-pyrazole-3-carboxamide], under setting [1], the IC50 is less than 100 nM.

Turning to `Cc1scnc1C(=O)N[C@@H]1[C@@H](c2ccccc2)N(c2ccc3c(cnn3-c3ccc(F)cc3)c2)C(=O)C1(C)C` [Example 39a, N-((2R,3S)-1-(1-(4-fluorophenyl)-1H-indazol-5-yl)-4,4-dimethyl-5-oxo-2-phenylpyrrolidin-3-yl)-5-methylthiazole-4-carboxamide], the IC50 under setting [1] is less than 100 nM.

In the case of `C[C@@H]1C(=O)N(c2ccc3c(cnn3-c3ccc(F)cc3)c2)[C@H](c2ccc(Cl)s2)[C@H]1NC(=O)c1cccnc1` (racemic) [Example 111, N-[rac-(2S,3S,4S)-2-(5-Chloro-thiophen-2-yl)-1-[1-(4-fluorophenyl)-1H-indazol-5-yl]-4-methyl-5-oxo-pyrrolidin-3-yl]-pyridine-3-carboxylic acid amide], under “read-out: IC50 or EC50”, the IC50 is less than 100 nM.

Turning to `Cc1cccc([C@@H]2[C@@H](NC(=O)c3ccn(C)n3)[C@H](C)C(=O)N2c2ccc3c(cnn3-c3ccc(F)cc3)c2)c1` (racemic) [Example 75, N-[rac-(2R,3S,4S)-1-[1-(4-Fluorophenyl)-1H-indazol-5-yl]-4-methyl-2-m-tolyl-5-oxo-pyrrolidin-3-yl]-1-methyl-1H-pyrazole-3-carboxylic acid amide], where the note is “read-out: IC50 or EC50”, the IC50 is less than 100 nM.

`Cc1nocc1C(=O)N[C@@H]1[C@@H](c2ccccc2)N(c2ccc3c(cnn3-c3ccc(F)cc3)c2)C(=O)C1(C)C` [Example 40a, N-((2R,3S)-1-(1-(4-fluorophenyl)-1H-indazol-5-yl)-4,4-dimethyl-5-oxo-2-phenylpyrrolidin-3-yl)-3-methylisoxazole-4-carboxamide] had an IC50 under setting [1] of less than 100 nM.

`C[C@@H]1C(=O)N(c2ccc3c(cnn3-c3ccc(F)cc3)c2)[C@H](c2ccccc2)[C@H]1NC(=O)c1cccnc1` (racemic) [Example 65, N-[rac-(2R,3S,4S)-1-[1-(4-Fluorophenyl)-1H-indazol-5-yl]-4-methyl-5-oxo-2-phenyl-pyrrolidin-3-yl]-pyridine-3-carboxylic acid amide]: the IC50 (read-out: IC50 or EC50) was less than 100 nM.

`Cc1ncsc1C(=O)N[C@@H]1[C@@H](c2ccccc2)N(c2ccc3c(cnn3-c3ccc(F)cc3)c2)C(=O)C1(C)C` [Example 38b, N-((2R,3S)-1-(1-(4-fluorophenyl)-1H-indazol-5-yl)-4,4-dimethyl-5-oxo-2-phenylpyrrolidin-3-yl)-4-methylthiazole-5-carboxamide] came in with an IC50 under setting [1] of less than 100 nM.

For the compound `Cc1cccc([C@@H]2[C@@H](NC(=O)c3cccnc3)[C@H](C)C(=O)N2c2ccc3c(cnn3-c3ccc(F)cc3)c2)c1` (racemic) [Example 68, N-[rac-(2R,3S,4S)-1-[1-(4-Fluorophenyl)-1H-indazol-5-yl]-4-methyl-2-m-tolyl-5-oxo-pyrrolidin-3-yl]-pyridine-3-carboxylic acid amide], for the setting “read-out: IC50 or EC50”, the IC50 lay in the range of 100 to 1000 nM.

For the compound `COc1ccc([C@@H]2[C@@H](NC(=O)C(C)(F)F)[C@H](C)C(=O)N2c2ccc3c(cnn3-c3ccc(F)cc3)c2)cc1` (racemic) [Example 98, 2,2-Difluoro-N-[rac-(2R,3S,4S)-1-[1-(4-fluorophenyl)-1H-indazol-5-yl]-2-(4-methoxyphenyl)-4-methyl-5-oxo-pyrrolidin-3-yl]-propionamide], the IC50 (read-out: IC50 or EC50) was less than 100 nM.

The compound `C[C@@]1(CC(F)F)C(=O)N(c2ccc3c(cnn3-c3ccc(F)cc3)c2)[C@H](c2ccccc2)[C@H]1NC(=O)C1CC1` (racemic) [Example 136, N-(rac(2R,3S,4S)-4-(2,2-difluoroethyl)-1-(1-(4-fluorophenyl)-1H-indazol-5-yl)-4-methyl-5-oxo-2-phenylpyrrolidin-3-yl)cyclopropanecarboxamide] came in with an IC50 under setting [1] of less than 100 nM.

As to `Cc1cccc([C@@H]2[C@@H](NC(=O)C3CC3)[C@H](C)C(=O)N2c2ccc3c(cnn3-c3ccc(F)cc3)c2)c1` (racemic) [Example 63, N-[rac-(2R,3S,4S)-1-[1-(4-Fluorophenyl)-1H-indazol-5-yl]-4-methyl-2-m-tolyl-5-oxo-pyrrolidin-3-yl]-cyclopropanecarboxylic acid amide], the IC50 (read-out: IC50 or EC50) lay in the range of 100 to 1000 nM.

Take `C[C@@]1(F)C(=O)N(c2ccc3c(cnn3-c3ccc(F)cc3)c2)[C@H](c2ccccc2)[C@H]1NC(=O)C1CC1` (racemic) [Example 129, N-[rac-(2R,3R,4S)-4-Fluoro-1-[1-(4-fluorophenyl)-1H-indazol-5-yl]-4-methyl-5-oxo-2-phenyl-pyrrolidin-3-yl]-cyclopropanecarboxylic acid amide]: the IC50 (read-out: IC50 or EC50) is less than 100 nM.

On to `Cc1cccc([C@@H]2[C@@H](NC(=O)c3scnc3C)[C@@H](C)C(=O)N2c2ccc3c(cnn3-c3ccc(F)cc3)c2)c1` (racemic) [Example 71, N-[rac-(2R,3S,4R)-1-[1-(4-Fluorophenyl)-1H-indazol-5-yl]-4-methyl-2-m-tolyl-5-oxo-pyrrolidin-3-yl]-4-methyl-thiazole-5-carboxylic acid amide], for which the IC50 (read-out: IC50 or EC50) was in the range of 100 to 1000 nM.

Take `C[C@@]1(CC2CC2)C(=O)N(c2ccc3c(cnn3-c3ccc(F)cc3)c2)[C@H](c2ccccc2)[C@H]1NC(=O)C1CC1` (racemic) [Example 149, N-(rac-(2R,3S,4S)-4-(cyclopropylmethyl)-1-(1-(4-fluorophenyl)-1H-indazol-5-yl)-4-methyl-5-oxo-2-phenylpyrrolidin-3-yl)cyclopropanecarboxamide]: the IC50 (read-out: IC50 or EC50) is less than 100 nM.

Consider `CC[C@@H]1[C@@H](NC(=O)C2CC2)[C@@](F)(Cc2ccccc2)C(=O)N1c1ccc2c(cnn2-c2ccc(F)cc2)c1` (racemic) [Example 137, N-(rac-(2R,3R,4S)-4-benzyl-2-ethyl-4-fluoro-1-(1-(4-fluorophenyl)-1H-indazol-5-yl)-5-oxopyrrolidin-3-yl)cyclopropanecarboxamide], for which the IC50 (read-out: IC50 or EC50) was less than 100 nM.

Compound `O=C(N[C@@H]1[C@@H](c2ccccc2)N(c2ccc3c(cnn3-c3ccc(F)cc3)c2)C(=O)C1(F)F)C1CC1` [Example 96, N-((2R,3R)-4,4-difluoro-1-(1-(4-fluorophenyl)-1H-indazol-5-yl)-5-oxo-2-phenylpyrrolidin-3-yl)cyclopropanecarboxamide] came in with an IC50 under setting [1] of less than 100 nM.

`O=C(N[C@H]1C(CCc2ccccc2)C(=O)N(c2ccc3c(cnn3-c3ccc(F)cc3)c2)[C@@H]1c1ccccc1)C1CC1` (single isomer, unassigned) [Example 130] gave an IC50 under setting [1] of 100 to 1000 nM.

As for `C[C@H]1C(=O)N(c2ccc3c(cnn3-c3ccc(F)cc3)c2)[C@H](c2ccc(Cl)s2)[C@H]1NC(=O)C(C)(F)F` (racemic) [Example 125, N-[rac-(2S,3S,4R)-2-(5-Chloro-thiophen-2-yl)-1-[1-(4-fluorophenyl)-1H-indazol-5-yl]-4-methyl-5-oxo-pyrrolidin-3-yl]-2,2-difluoro-propionamide], the IC50 (read-out: IC50 or EC50) is less than 100 nM.

For the compound `Cc1cccc([C@@H]2[C@@H](NC(=O)c3ncccn3)[C@H](C)C(=O)N2c2ccc3c(cnn3-c3ccc(F)cc3)c2)c1` (racemic) [Example 69, N-[rac-(2R,3S,4S)-1-[1-(4-Fluorophenyl)-1H-indazol-5-yl]-4-methyl-2-m-tolyl-5-oxo-pyrrolidin-3-yl]-pyrimidine-2-carboxylic acid amide], the IC50 (read-out: IC50 or EC50) was less than 100 nM.

With `Cc1cccc([C@@H]2[C@@H](NS(C)(=O)=O)[C@@H](C)C(=O)N2c2ccc3c(cnn3-c3ccc(F)cc3)c2)c1` (racemic) [Example 76, N-[rac-(2R,3S,4R)-1-[1-(4-Fluorophenyl)-1H-indazol-5-yl]-4-methyl-2-m-tolyl-5-oxo-pyrrolidin-3-yl]-methanesulfonic acid amide], the IC50 (read-out: IC50 or EC50) was less than 100 nM.

For `C[C@]1(F)C(=O)N(c2ccc3c(cnn3-c3ccc(F)cc3)c2)[C@H](c2ccccc2)[C@H]1NC(=O)C1CC1` (racemic) [Example 128, N-[rac-(2R,3R,4R)-4-Fluoro-1-[1-(4-fluorophenyl)-1H-indazol-5-yl]-4-methyl-5-oxo-2-phenyl-pyrrolidin-3-yl]-cyclopropanecarboxylic acid amide], the IC50 (read-out: IC50 or EC50) was 100 to 1000 nM.

For `Cc1ncsc1C(=O)N[C@H]1[C@H](c2ccccc2)N(c2ccc3c(cnn3-c3ccc(F)cc3)c2)C(=O)C1(C)C` [Example 38a, N-((2S,3R)-1-(1-(4-fluorophenyl)-1H-indazol-5-yl)-4,4-dimethyl-5-oxo-2-phenylpyrrolidin-3-yl)-4-methylthiazole-5-carboxamide], the IC50 (read-out: IC50 or EC50) fell in the range of 100 to 1000 nM.

Source of the values: US12358907B2, “Substituted pyrrolidine amides III” (GRÜNENTHAL GMBH, priority 2019, dated 2025).
